Here are results for 24 molecules from patent US9777015B2, “Useful thiophene derivatives in the treatment of diabetes” (METABRAIN RESEARCH, priority 2012, dated 2017).

Each structure is given as a SMILES string. Structures can show the parent of a compound that is named as a salt. Where two headings read alike, the source gives them in different places.

The assay concerns hepatocytes isolated from Wistar rat liver. Kind of assay: Test of inhibition of hepatic production of glucose (isolated hepatocytes, 3 h or 20 h incubation). The assay is classed as cell-based. To be noted: for activity at 50 µM / activity at 100 µM: Rattus norvegicus, Hepatocyte, hepatic glucose production, rat hepatocytes; for activity at 50 µM: compound at 50 μM, read-out: HGP % of ctrl @ 50 μM; for activity at 100 µM: compound at 100 μM, read-out: HGP % of ctrl @ 100 μM. Here is the method:
The hepatocytes are isolated from Wistar rat liver having fasted for 24 h after perfusion of collagenase in the portal vein. The freshly isolated hepatocytes are sown in 6-well plates coated with collagen and containing an adhesion medium (Williams Medium). After adhesion, the medium is replaced with RPMI 1640 medium without any glucose, containing hydrocortisone (7.10^−5M) for a duration from 16 to 18 h. The next day, the glucose hepatic production test is conducted in a Krebs medium for 3 h. The basal conditions are cells incubated with only Krebs, the stimulated conditions are the cells placed in Krebs+lactate+pyruvate, the produced conditions are the cells exposed to chemical compounds in a Krebs/lactate/pyruvate medium. In the case when the compounds are dissolved in DMSO, all the conditions of the tests are met in the presence of a final concentration of 0.1% DMSO. The positive control of the test is the mercaptopicolinate known for its inhibitory action on hepatic production of glucose via the phosphoenolpyruvate carboxykinase. For short term treatments, the compounds are incubated for 3 h. For long term treatments, the compounds are incubated for 20 h at the moment when the hepatocytes are cultivated in RPMI and then added during the hepatic production test for 3 h. At the end of the 3 hours of incubation, the supernatant is recovered for measurement of glucose with a colorimetric method using glucose oxidase. The cells are lysed with a 0.1% NaOH aqueous solution in order to measure the amount of protein with the Lowry method. The results are expressed in mmols of glucose per mg of protein.

[1] abbreviates: 20 h incubation, with two doses.

`CCOC(=O)CN(C)C(=O)Cc1cc(C(=O)c2ccc(OC)cc2)sc1-c1ccccc1` [compound 87, ethyl 2-(2-(5-(4-methoxybenzoyl)-2-phenylthiophen-3-yl)-N-methylacetamido)acetate]: where the note is “3 h, 3 h incubation”, the activity at 50 µM stood at 77% and the activity at 100 µM worked out at 73%.

With `CCONC(=O)Cc1cc(C(=O)c2ccco2)sc1-c1ccc(Cl)cc1` [compound 98, 2-(2-(4-chlorophenyl)-5-(furan-2-carbonyl)thiophen-3-yl)-N-ethoxyacetamide], for the setting “3 h, 3 h incubation”, the activity at 50 µM amounted to 88% and the activity at 100 µM worked out at 74%.

On to `COc1ccc(C(=O)c2cc(CC(=O)NO)c(-c3ccc(Cl)cc3)s2)cc1` [compound 100, 2-(2-(4-chlorophenyl)-5-(4-methoxybenzoyl)thiophen-3-yl)-N-hydroxyacetamide], for which the “inhibition of hepatic production of glucose” value (“inhibition” for short) under setting [1] is listed as “strongest inhibitions”. Also, for the setting “20 h, 20 h incubation”, the activity at 50 µM stood at 43% and the activity at 100 µM was 20%.

Consider `COc1ccc(C(=NO)c2cc(CC(=O)O)c(-c3ccc(Cl)cc3)s2)cc1` [compound 109, 2-(2-(4-chlorophenyl)-5-((hydroxyimino)(4-methoxyphenyl)methyl)thiophen-3-yl)acetic acid], for which, under “3 h, 3 h incubation”, the activity at 50 µM turned out to be 69% and the activity at 100 µM is 27%.

For `CON=C(c1ccc(OC)cc1)c1cc(CC(=O)O)c(-c2ccc(Cl)cc2)s1` [compound 110, 2-(2-(4-chlorophenyl)-5-((methoxyimino)(4-methoxyphenyl)methyl)thiophen-3-yl)acetic acid], under “3 h, 3 h incubation”, the activity at 50 µM was found to be 72% and the activity at 100 µM stood at 33%.

Consider `COc1cccc(NC(=O)c2cc(CC(=O)OC(C)C)c(-c3ccc(Cl)cc3)s2)c1` [compound 115, isopropyl 2-(2-(4-chlorophenyl)-5-((3-methoxyphenyl)-carbamoyl)thiophen-3-yl)acetate], for which, where the note is “3 h, 3 h incubation”, the activity at 50 µM worked out at 66% and the activity at 100 µM was 75%.

Turning to `COc1cccc(CNC(=O)c2cc(CC(=O)OC(C)C)c(-c3ccc(Cl)cc3)s2)c1` [compound 116, isopropyl 2-(2-(4-chlorophenyl)-5-((3-methoxybenzyl)-carbamoyl)thiophen-3-yl)acetate], for the setting “3 h, 3 h incubation”, the activity at 50 µM was 62% and the activity at 100 µM was 67%.

As to `COc1ccc(NC(=O)c2cc(CC(=O)O)c(-c3ccc(Cl)cc3)s2)cc1` [compound 121, 2-(2-(4-chlorophenyl)-5-((4-methoxyphenyl)carbamoyl)thiophen-3-yl)acetic acid], for the setting “3 h, 3 h incubation”, the activity at 50 µM was 80% and the activity at 100 µM came to 66%.

As to `COc1ccc(C(=O)c2cc(C(C)C(=O)O)c(-c3ccc(Cl)cc3)s2)cc1` (stereo not drawn) [compound 127, 2-(2-(4-chlorophenyl)-5-(4-methoxybenzoyl)thiophen-3-yl)propanoic acid], the “inhibition” value (3 h incubation, with two doses) was “strongest inhibitions”. Under “3 h, 3 h incubation”, the activity at 50 µM was 54% and the activity at 100 µM was 23%.

`COCC(C(=O)O)c1cc(C(=O)c2ccc(OC)cc2)sc1-c1ccc(Cl)cc1` (stereo not drawn) [compound 128, 2-(2-(4-chlorophenyl)-5-(4-methoxybenzoyl)thiophen-3-yl)-3-methoxypropanoic acid]: the “inhibition” value under setting [1] is recorded as “strongest inhibitions”. Besides, where the note is “20 h, 20 h incubation”, the activity at 50 µM came to 41% and the activity at 100 µM amounted to 16%.

Take `O=C(O)Cc1cc(C(=O)c2ccco2)sc1-c1ccc(Cl)cc1F` [compound 144, 2-(2-(4-chloro-2-fluorophenyl)-5-(furan-2-carbonyl)thiophen-3-yl)acetic acid]: under “3 h, 3 h incubation”, the activity at 50 µM was 74% and the activity at 100 µM stood at 52%.

Turning to `O=C(O)Cc1cc(C(=O)c2ccccn2)sc1-c1ccc(Cl)cc1` [compound 149, 2-(2-(4-chlorophenyl)-5-picolinoylthiophen-3-yl)acetic acid], where the note is “20 h, 20 h incubation”, the activity at 50 µM turned out to be 47% and the activity at 100 µM was 13%.

With `O=C(c1ccco1)c1cc(Cc2noc(=O)[nH]2)c(-c2ccc(Cl)cc2)s1` [compound 153, 3-((2-(4-chlorophenyl)-5-(furan-2-carbonyl)thiophen-3-yl)-methyl)-1,2,4-oxadiazol-5(2H)-one], for the setting “3 h, 3 h incubation”, the activity at 50 µM was determined as 95% and the activity at 100 µM is 38%.

As to `O=C(O)Cc1cc(C(=O)c2ccccc2)sc1-c1ccc(Cl)cc1` [compound 154, 2-[5-benzoyl-2-(4-chlorophenyl)-3-thienyl]acetic acid], where the note is “3 h, 3 h incubation”, the activity at 50 µM worked out at 81% and the activity at 100 µM was 63%.

`COc1cc(Cl)ccc1C(=O)c1cc(CC(=O)O)c(-c2ccc(Cl)cc2)s1` [compound 156, 2-[5-(4-chloro-2-methoxy-benzoyl)-2-(4-chlorophenyl)-3-thienyl]acetic acid]: for the setting “3 h incubation, with two doses”, the “inhibition” value is on record as “strongest inhibitions”. Also, under “3 h, 3 h incubation”, the activity at 50 µM worked out at 21% and the activity at 100 µM turned out to be 7%.

As for `O=C(O)Cc1cc(C(=O)c2ccco2)sc1-c1ccc(Cl)c(Cl)c1` [compound 159, 2-[2-(3,4-dichlorophenyl)-5-(furan-2-carbonyl)-3-thienyl]acetic acid], the “inhibition” value (3 h incubation, at the dose of 50 μM) was “strongest inhibitions”. The activity at 50 µM (3 h, 3 h incubation) was found to be 40%.

On to `COc1ccc(C(=O)c2cc(CC(=O)NCCN(C)C)c(-c3ccc(Cl)c(Cl)c3)s2)cc1` [compound 166, 2-[2-(3,4-dichlorophenyl)-5-(4-methoxybenzoyl)-3-thienyl]-N-(2-dimethylaminoethyl)acetamide], for which, for the setting “3 h, 3 h incubation”, the activity at 50 µM was 71% and the activity at 100 µM came to 65%.

With `CCON=C(c1ccc(Cl)c(Cl)c1)c1cc(CC(=O)O)c(-c2ccc(Cl)cc2)s1` [compound 167, 2-[2-(4-chlorophenyl)-5-[C-(3,4-dichlorophenyl)-N-ethoxy-carbonimidoyl]-3-thienyl]acetic acid], the “inhibition” value (3 h incubation, with two doses) was “strongest inhibitions”. Besides, for the setting “3 h, 3 h incubation”, the activity at 50 µM was 20% and the activity at 100 µM amounted to 23%.

For the molecule `CCOC(=O)Cc1cc(S(=O)(=O)c2ccc(OC)cc2)sc1-c1ccc(Cl)c(Cl)c1` [compound 174, ethyl 2-[2-(3,4-dichlorophenyl)-5-(4-methoxyphenyl)sulfonyl-3-thienyl]acetate], where the note is “3 h, 3 h incubation”, the activity at 50 µM was determined as 73% and the activity at 100 µM stood at 77%.

On to `CCOC(=O)Cc1cc(C(=O)NNC(=O)c2cccc(OC)c2)sc1-c1ccc(Cl)cc1` [compound 178, ethyl 2-[2-(4-chlorophenyl)-5-[[(3-methoxybenzoyl)-amino]carbamoyl]-3-thienyl]acetate], for which, where the note is “3 h, 3 h incubation”, the activity at 50 µM came to 92% and the activity at 100 µM came to 72%.

For the molecule `CCOC(=O)Cc1cc(C(=O)NNC(=O)c2ccncc2)sc1-c1ccc(Cl)cc1` [compound 179, ethyl 2-[2-(4-chlorophenyl)-5-[(pyridine-4-carbonyl-amino)-carbamoyl]-3-thienyl]acetate], where the note is “3 h, 3 h incubation”, the activity at 50 µM stood at 91% and the activity at 100 µM is 69%.

Turning to `COc1ccc(C(=O)c2cc(CC(=O)NC(=N)N)c(-c3ccc(Cl)c(Cl)c3)s2)cc1` [compound 184, N-carbamimidoyl-2-[2-(3,4-dichlorophenyl)-5-(4-methoxybenzoyl)-3-thienyl]acetamide hydrochloride], under “3 h, 3 h incubation”, the activity at 50 µM came to 68% and the activity at 100 µM amounted to 80%.

With `COc1ccc(C(=O)c2cc(CC(=O)NC(=N)N)c(-c3ccc(Cl)cc3)s2)cc1.Cl` [compound 185, N-carbamimidoyl-2-(2-(4-chlorophenyl)-5-(4-methoxybenzoyl)thiophen-3-yl) acetamide hydrochloride], the “inhibition” value (3 h incubation, with two doses) was “strongest inhibitions”. Besides, under “3 h, 3 h incubation”, the activity at 50 µM came out at 54% and the activity at 100 µM was determined as 28%.

Take `N=C(N)NC(=O)Cc1cc(C(=O)c2ccco2)sc1-c1ccc(Cl)cc1` [compound 186, N-carbamimidoyl-2-[2-(4-chlorophenyl)-5-(furan-2-carbonyl)-3-thienyl]acetamide hydrochloride]: under “3 h, 3 h incubation”, the activity at 50 µM worked out at 69% and the activity at 100 µM was 60%.
